Data set [1] is described as follows: in vivo pharmacokinetic analysis of free drug by microdialysis / CF-FAB mass spectrometry (jugular vein probe, rat). Details: species or system Sprague Dawley male rat. The settings on record: 330 gram rat, 15 milligrams sodium penicillin G in 0.3 milliliters saline, injected. An excerpt:
Referring to FIG. 1, the present invention applied to detect drug and metabolite levels in a rat is disclosed. It should be emphasized that the present apparatus and method can be applied to other animals, including humans. Microdialysis probe 11 is inserted inside a 22-gauge needle cannula (not shown) surgically placed in the jugular vein of a 330 gram Sprague Dawley male rat 12. A microliter syringe pump 13 is connected to microdialysis probe 11 by tube 14 and is used to controllably provide perfusate to microdialysis probe 11 through tube 14. Syringe pump 13 can be a Model 2274 pump available from the Harvard Apparatus Co., of Milford, Mass. In the preferred embodiment, the perfusate is 95% water and 5% glycerol provided at a rate of 4.8+/-0.2 microliters per minute.
The dialysate output from microdialysis probe 11 is connected through tube 16 to injection switch valve 17 which can be, for example, a Rheodyne Model 7410 injection switch valve. During collection, injection switch valve 17 is positioned so that dialysate passing through tube 16 passes through 20 microliter collection loop 18. […]
A 330 gram rat was injected with a dose of 15 milligrams of sodium penicillin G dissolved in 0.3 milliliters of physiological saline solution. Negative ions were recorded in the mass spectrometric analysis of the dialysate in order to obtain maximum sensitivity. […]

For data set [2] the following is noted: intramuscular administration; broken curve 43 in FIG. 4; cited from earlier work.

For the compound `CC1(C)S[C@@H]2[C@H](NC(=O)Cc3ccccc3)C(=O)N2[C@H]1C(=O)O` [sodium penicillin G], in data set [1], the “peak concentration of free drug (non-protein bound)” value was “approximately 24 micrograms per milliliter” and the “time of peak concentration of free drug” value is reported as “about 30 minutes”. Besides, in data set [2], the “time to peak, published data” value was 26 to 30 min.

Source of the values: patent publication US5078135A, “Apparatus for in vivo analysis of biological compounds in blood or tissue by microdialysis and mass spectrometry” (Board of Regents, The University of Texas System, priority 1989, dated 1992).
